Measurements published in ChEMBL document CHEMBL5291721, “A preclinical secondary pharmacology resource illuminates target-adverse drug reaction associations of marketed drugs” (Nat Commun, 2023).

What was measured:
[1] = target: T1, Prostaglandin G/H synthase 1 (Rattus norvegicus, UniProt Q63921); assay type: functional
T1 sequence (Q63921 whole entry): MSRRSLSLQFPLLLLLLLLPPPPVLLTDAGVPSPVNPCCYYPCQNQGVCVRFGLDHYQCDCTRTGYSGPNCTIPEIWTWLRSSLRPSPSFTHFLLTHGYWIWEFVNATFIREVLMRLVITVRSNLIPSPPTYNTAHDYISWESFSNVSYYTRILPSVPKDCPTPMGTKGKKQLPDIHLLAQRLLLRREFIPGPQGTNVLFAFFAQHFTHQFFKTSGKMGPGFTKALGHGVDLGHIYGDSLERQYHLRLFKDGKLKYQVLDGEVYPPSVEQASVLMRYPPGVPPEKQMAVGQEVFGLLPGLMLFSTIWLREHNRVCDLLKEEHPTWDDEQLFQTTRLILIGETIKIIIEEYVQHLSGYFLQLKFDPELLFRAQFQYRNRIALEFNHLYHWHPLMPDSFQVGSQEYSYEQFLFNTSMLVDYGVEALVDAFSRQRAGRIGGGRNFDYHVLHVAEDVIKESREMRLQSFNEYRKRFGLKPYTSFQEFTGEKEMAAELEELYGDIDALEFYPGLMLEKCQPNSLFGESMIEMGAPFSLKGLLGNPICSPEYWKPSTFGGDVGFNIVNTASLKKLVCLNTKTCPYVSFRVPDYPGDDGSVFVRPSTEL

[2] = target: T2, Muscarinic acetylcholine receptor M2 (Homo sapiens, UniProt P08172); assay type: functional, cell-based
T2 sequence (P08172 whole entry): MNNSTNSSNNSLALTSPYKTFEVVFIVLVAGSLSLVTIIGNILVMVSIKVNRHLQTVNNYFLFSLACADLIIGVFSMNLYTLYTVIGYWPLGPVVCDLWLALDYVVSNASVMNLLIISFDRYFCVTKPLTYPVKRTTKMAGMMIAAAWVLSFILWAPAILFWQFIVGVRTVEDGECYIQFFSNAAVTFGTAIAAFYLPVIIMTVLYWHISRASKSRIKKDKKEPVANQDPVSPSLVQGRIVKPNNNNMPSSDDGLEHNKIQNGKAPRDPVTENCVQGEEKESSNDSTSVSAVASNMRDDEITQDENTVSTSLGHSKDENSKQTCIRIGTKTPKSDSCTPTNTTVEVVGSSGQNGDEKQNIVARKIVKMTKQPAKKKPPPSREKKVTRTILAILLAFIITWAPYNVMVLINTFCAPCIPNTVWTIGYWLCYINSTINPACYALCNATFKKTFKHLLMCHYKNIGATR

[3] = target: T3, Gamma-aminobutyric acid receptor subunit alpha-1 (Rattus norvegicus, UniProt P62813)
[4] = target: Sodium-dependent serotonin transporter (Homo sapiens, UniProt P31645)
[5] = target: T4, Muscarinic acetylcholine receptor M1 (Homo sapiens, UniProt P11229); assay type: functional
T4 sequence (P11229 whole entry): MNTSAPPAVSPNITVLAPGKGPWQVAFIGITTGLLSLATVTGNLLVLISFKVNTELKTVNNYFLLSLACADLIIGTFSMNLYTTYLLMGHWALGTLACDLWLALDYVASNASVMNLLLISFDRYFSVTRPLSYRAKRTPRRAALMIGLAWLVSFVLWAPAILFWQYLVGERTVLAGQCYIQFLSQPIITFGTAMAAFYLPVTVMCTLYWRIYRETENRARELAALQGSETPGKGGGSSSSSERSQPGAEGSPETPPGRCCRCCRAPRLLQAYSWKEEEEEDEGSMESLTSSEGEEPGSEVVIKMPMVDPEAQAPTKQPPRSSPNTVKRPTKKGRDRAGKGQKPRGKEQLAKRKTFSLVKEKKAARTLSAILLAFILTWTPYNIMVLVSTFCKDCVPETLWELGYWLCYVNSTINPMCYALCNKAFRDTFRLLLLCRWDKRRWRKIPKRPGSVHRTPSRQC

[6] = target: T4, Muscarinic acetylcholine receptor M1; assay type: functional, cell-based
Cannabinoid receptor 1 = Cannabinoid receptor 1 (Homo sapiens, UniProt P21554); assay type: functional, cell-based
[7] = target: 5-hydroxytryptamine receptor 2B (Homo sapiens, UniProt P41595); assay type: functional, cell-based
[8] = target: T5, Alpha-1A adrenergic receptor (Homo sapiens, UniProt P35348); assay type: functional, cell-based
T5 sequence (P35348 whole entry): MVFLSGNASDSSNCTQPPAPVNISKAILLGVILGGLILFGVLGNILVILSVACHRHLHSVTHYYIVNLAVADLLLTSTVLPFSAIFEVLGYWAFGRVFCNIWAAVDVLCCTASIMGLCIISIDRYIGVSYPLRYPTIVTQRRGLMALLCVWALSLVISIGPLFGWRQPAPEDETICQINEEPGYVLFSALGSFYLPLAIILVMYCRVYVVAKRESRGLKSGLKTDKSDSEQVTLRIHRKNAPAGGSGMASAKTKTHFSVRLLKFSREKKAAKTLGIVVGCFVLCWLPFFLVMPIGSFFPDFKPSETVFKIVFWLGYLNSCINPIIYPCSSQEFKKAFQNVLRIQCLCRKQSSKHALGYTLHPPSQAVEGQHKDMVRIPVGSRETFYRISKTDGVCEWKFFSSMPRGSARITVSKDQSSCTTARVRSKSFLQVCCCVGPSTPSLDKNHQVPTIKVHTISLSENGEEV

[9] = target: Delta-type opioid receptor (Homo sapiens, UniProt P41143)
[10] = target: T5, Alpha-1A adrenergic receptor; assay type: functional, cell-based; remark: listed apart in the source
D(1A) dopamine receptor = D(1A) dopamine receptor (Homo sapiens, UniProt P21728); assay type: functional, cell-based
[11] = target: Glutamate receptor ionotropic, NMDA 1 (Rattus norvegicus, UniProt P35439)
[12] = target: T3, Gamma-aminobutyric acid receptor subunit alpha-1; remark: listed apart in the source
Note: assay procedure not described here.

Chain of Sodium-dependent serotonin transporter (P31645 whole entry): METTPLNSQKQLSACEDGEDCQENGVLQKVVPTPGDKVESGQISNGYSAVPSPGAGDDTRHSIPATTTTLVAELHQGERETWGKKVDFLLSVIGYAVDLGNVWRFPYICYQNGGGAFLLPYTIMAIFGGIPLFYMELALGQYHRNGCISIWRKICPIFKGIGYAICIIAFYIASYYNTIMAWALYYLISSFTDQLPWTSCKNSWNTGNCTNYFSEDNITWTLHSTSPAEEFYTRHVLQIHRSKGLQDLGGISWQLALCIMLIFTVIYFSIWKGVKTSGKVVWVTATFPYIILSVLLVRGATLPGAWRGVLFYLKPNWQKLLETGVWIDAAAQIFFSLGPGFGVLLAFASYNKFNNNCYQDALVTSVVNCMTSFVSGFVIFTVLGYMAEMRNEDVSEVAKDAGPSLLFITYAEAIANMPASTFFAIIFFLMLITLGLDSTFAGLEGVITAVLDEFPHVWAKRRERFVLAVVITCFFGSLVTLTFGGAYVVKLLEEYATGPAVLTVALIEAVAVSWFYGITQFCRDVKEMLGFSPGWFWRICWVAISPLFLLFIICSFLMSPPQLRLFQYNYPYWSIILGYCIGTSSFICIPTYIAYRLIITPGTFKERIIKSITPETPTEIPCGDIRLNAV
Chain of 5-hydroxytryptamine receptor 2B (P41595 whole entry): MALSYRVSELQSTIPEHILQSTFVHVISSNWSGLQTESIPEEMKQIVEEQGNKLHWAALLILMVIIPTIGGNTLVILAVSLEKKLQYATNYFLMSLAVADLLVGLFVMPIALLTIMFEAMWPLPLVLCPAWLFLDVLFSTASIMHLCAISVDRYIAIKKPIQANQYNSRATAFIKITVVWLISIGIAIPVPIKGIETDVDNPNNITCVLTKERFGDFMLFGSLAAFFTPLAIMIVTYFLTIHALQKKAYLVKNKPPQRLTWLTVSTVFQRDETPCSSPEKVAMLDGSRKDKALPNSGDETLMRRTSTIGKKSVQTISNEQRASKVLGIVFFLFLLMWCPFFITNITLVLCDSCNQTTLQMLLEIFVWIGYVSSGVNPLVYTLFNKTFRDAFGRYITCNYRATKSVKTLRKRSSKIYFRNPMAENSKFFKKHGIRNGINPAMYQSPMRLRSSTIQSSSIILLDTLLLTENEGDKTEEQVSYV
Chain of Delta-type opioid receptor (P41143 whole entry): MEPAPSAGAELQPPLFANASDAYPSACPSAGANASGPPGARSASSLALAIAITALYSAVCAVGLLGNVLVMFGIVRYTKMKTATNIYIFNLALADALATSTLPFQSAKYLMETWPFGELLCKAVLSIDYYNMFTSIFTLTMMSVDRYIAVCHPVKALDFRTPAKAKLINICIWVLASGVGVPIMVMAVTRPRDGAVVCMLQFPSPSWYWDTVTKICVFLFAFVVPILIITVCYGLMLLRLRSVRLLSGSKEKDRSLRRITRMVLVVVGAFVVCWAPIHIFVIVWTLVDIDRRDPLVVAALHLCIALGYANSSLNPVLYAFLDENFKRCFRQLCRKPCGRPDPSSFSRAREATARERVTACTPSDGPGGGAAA
T3 sequence (P62813 whole entry): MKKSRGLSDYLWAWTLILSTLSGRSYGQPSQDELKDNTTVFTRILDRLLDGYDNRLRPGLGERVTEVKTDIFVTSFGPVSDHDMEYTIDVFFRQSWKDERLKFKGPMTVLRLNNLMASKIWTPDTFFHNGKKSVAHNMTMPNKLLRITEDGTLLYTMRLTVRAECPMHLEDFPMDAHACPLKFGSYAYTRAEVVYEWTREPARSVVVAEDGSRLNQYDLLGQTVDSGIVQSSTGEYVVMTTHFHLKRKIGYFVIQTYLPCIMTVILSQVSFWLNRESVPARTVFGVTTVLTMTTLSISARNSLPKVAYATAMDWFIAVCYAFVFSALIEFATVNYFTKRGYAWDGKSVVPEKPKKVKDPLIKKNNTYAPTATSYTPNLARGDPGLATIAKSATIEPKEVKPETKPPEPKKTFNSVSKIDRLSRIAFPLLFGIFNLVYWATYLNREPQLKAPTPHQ
Chain of D(1A) dopamine receptor (P21728 whole entry): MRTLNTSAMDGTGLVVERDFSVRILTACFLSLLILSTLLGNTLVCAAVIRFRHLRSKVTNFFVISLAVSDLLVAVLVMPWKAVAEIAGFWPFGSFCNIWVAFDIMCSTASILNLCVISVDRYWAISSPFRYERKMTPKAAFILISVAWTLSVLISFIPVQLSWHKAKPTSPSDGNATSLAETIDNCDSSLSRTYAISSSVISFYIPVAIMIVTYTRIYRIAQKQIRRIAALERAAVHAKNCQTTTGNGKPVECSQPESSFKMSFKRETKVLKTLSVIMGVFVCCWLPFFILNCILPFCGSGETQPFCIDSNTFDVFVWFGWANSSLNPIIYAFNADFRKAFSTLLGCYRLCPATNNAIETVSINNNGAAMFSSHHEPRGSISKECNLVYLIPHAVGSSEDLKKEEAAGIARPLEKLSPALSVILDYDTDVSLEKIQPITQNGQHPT
Chain of Cannabinoid receptor 1 (P21554 whole entry): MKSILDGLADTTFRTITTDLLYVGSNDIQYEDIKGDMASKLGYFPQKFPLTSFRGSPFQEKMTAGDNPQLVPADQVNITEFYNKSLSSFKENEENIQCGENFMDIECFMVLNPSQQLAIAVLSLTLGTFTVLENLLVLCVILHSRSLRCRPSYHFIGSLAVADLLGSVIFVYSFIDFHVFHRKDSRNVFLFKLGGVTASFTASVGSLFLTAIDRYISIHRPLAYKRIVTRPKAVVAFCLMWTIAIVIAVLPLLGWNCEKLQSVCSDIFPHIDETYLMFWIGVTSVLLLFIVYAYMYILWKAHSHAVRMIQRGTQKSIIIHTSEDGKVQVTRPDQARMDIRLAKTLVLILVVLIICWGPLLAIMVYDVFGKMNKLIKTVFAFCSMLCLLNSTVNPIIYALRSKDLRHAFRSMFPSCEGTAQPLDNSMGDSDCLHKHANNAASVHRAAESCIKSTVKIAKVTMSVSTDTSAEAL

Row | SMILES | AC50 [3] [µM] | AC50 [4] [µM] | AC50 [6] [µM] | further results
1 | O=C(O)c1cccc(-c2noc(-c3ccccc3F)n2)c1 | > 30 | > 30 | > 30 | AC50 [1]: > 30 µM; AC50 [2]: > 10 µM; AC50 [5]: > 10 µM
2 | Nc1ccc(C(=O)O)cc1 [AMINOBENZOIC ACID] | > 30 | > 30 | > 30 | 
3 | CCS(=O)(=O)N1CC(CC#N)(n2cc(-c3ncnc4[nH]ccc34)cn2)C1 [BARICITINIB] | > 30 | > 30 | > 10 | 
4 | O=C(O)CCCN1CCC(O[C@@H](c2ccc(Cl)cc2)c2ccccn2)CC1 [BEPOTASTINE] | > 30 | > 30 | > 30 | 
5 | CCCCN(CCCC)CCCOC(=O)c1ccc(N)cc1 [BUTACAINE] | > 30 | > 30 | > 30 | 
6 | NCc1ccccc1CC(=O)N[C@@H]1C(=O)N2C(C(=O)O)=C(CSc3nnnn3CC(=O)O)CS[C@H]12 [CEFORANIDE] | > 30 | > 30 | > 10 | 
7 | NS(=O)(=O)c1cc2c(cc1Cl)NC(C1CC3C=CC1C3)NS2(=O)=O (centres undefined) [CYCLOTHIAZIDE] | > 30 | > 30 | 17.6 | 
8 | Nc1nc(-n2cc(C(=O)O)c(=O)c3cc(F)c(N4CC(O)C4)c(Cl)c32)c(F)cc1F [DELAFLOXACIN] | > 30 | > 30 | > 30 | 
9 | O=C(Nc1ccccc1)OCC(CN1CCCCC1)OC(=O)Nc1ccccc1 (centres undefined) [DIPERODON] |  | > 30 | > 30 | AC50 [1]: > 30 µM; AC50 (Cannabinoid receptor 1): > 30 µM; AC50 [2]: > 30 µM; AC50 [7]: > 10 µM; AC50 [8]: > 30 µM; AC50 [9]: > 10 µM; AC50 [10]: > 30 µM; AC50 (D(1A) dopamine receptor): > 10 µM; AC50 [11]: > 10 µM; AC50 [12]: > 10 µM; AC50 [5]: > 10 µM
10 | CCOC(=O)C(c1c(O)c2ccccc2oc1=O)c1c(O)c2ccccc2oc1=O [ETHYL BISCOUMACETATE] | > 30 | > 30 | > 30 | 
11 | Cc1nc(-c2ccc(OCC(C)C)c(C#N)c2)sc1C(=O)O [FEBUXOSTAT] | > 30 | > 30 | 16.1 | 
12 | O=C1NCC2(CCN(CCc3ccccc3)CC2)O1 [FENSPIRIDE] | 25.2 | > 30 | > 30 | 
13 | C[C@@H]1C[C@H]2[C@@H]3C[C@H](F)C4=CC(=O)C(Cl)=C[C@]4(C)[C@@]3(F)[C@@H](O)C[C@]2(C)[C@@]1(O)C(=O)CO [HALOMETASONE] | > 30 | > 30 | 13.1 | 
14 | CS(=O)(=O)Nc1cc2occ(NC=O)c(=O)c2cc1Oc1ccccc1 [IGURATIMOD] |  | > 30 | > 30 | AC50 [1]: > 30 µM; AC50 [7]: > 30 µM; AC50 [9]: > 30 µM; AC50 [5]: > 30 µM
15 | CCC(Cc1c(I)cc(I)c(N)c1I)C(=O)O (centres undefined) [IOPANOIC ACID] | > 30 | > 30 | 14.5 | 
16 | O=C(NC1CCN(CCCCC2(C(=O)NCC(F)(F)F)c3ccccc3-c3ccccc32)CC1)c1ccccc1-c1ccc(C(F)(F)F)cc1 [LOMITAPIDE] | > 30 | > 30 | 3.86 | 
17 | CCOC(=O)CC(SP(=S)(OC)OC)C(=O)OCC (centres undefined) [MALATHION] | > 30 | > 30 | 27.1 | 
18 | CCC1(c2cccc(O)c2)CCCCN(C)C1 (centres undefined) [MEPTAZINOL] | > 30 | 13.5 | > 30 | 
19 | C1N2CN3CN1CN(C2)C3 [METHENAMINE] | > 30 | > 30 | > 30 | 
20 | O=[N+]([O-])c1cncn1CCN1CCOCC1 [NIMORAZOLE] | > 30 | > 30 | > 30 | 
21 | NC(=O)c1cccc2cn(-c3ccc([C@@H]4CCCNC4)cc3)nc12 [NIRAPARIB] | > 30 | 1.17 | > 30 | 
22 | O=C(O)CCn1c2c(c3ccccc31)C[C@H](NS(=O)(=O)c1ccc(F)cc1)CC2 [RAMATROBAN] | > 30 | > 30 | > 30 | AC50 [1]: > 30 µM; AC50 [2]: > 10 µM; AC50 [7]: > 10 µM; AC50 [9]: > 30 µM; AC50 (D(1A) dopamine receptor): > 30 µM; AC50 [11]: > 10 µM; AC50 [12]: > 10 µM; AC50 [5]: > 10 µM
23 | CCC1C(C)=NN=C(c2ccc(OC)c(OC)c2)c2cc(OC)c(OC)cc21 (centres undefined) [TOFISOPAM] | > 30 | > 30 | 25.3 | 
24 | COc1cc(NCc2ccc3nc(N)nc(N)c3c2C)cc(OC)c1OC [TRIMETREXATE] | > 30 | > 30 | 12.3 | 
25 | COc1cc2c(cc1OC)[C@H]1C[C@@H](OC(=O)[C@@H](N)C(C)C)[C@H](CC(C)C)CN1CC2 [VALBENAZINE] | > 30 | > 30 | > 10 | 
